Results from US11963960B2 (Flash Therapeutics, LLC, priority 2020, dated 2024).
Entries after “also recorded” stand apart in the source; their conditions may differ. Where two headings read alike, the source gives them in different places.

Legend:
[1] = target: N-terminally GST-tagged HCK (75-526) (Homo sapiens (Human), UniProt P08631); experiment: HCK Kinase Assay (ProFluor Src-Family Kinase Assay); format: biochemical
Method in brief: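 ProFluor Src-family format: after the kinase reaction, protease solution was added for 60 min at room temperature (22-25° C), then stabilizer.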

[2] = Assessment of In Vitro Metabolic Stability in dog liver microsomes; format: in vitro ADME; details: for t1/2 in dog LM compared with the compound of example 1: comparison in words; for half-life at 1 μM: dog liver microsomes 0.5 mg/mL, 1 μM compound, NADPH, 37° C., read-out: Dog LM t1/2
Procedure: Assessment of In Vitro Metabolic Stability
Dog liver microsomes (0.5 mg/mL) were purchased from Corning. Stock solutions were prepared at 10 mM in DMSO for the test compound. Aliquots of the stock solutions were diluted to 0.5 mM with acetonitrile, and then further diluted upon the addition of liver microsomes/buffer to 1.5 μM. An aliquot of 30 μL of 1.5 μM solutions was mixed with 15 μL of 6 mM NADPH and the final concentration of NADPH was 2 mM, which had been pre-warmed to 37° C. Test compound and Ketanserin final concentrations were 1 μM. The plates were kept in a 37° C. water bath for the duration of the experiment. At each time point (0, 5, 15, 30, 45 minutes), 135 μL of acetonitrile was added into corresponding wells. After the final time point was quenched by acetonitrile, the assay plates were shaken (IKA, MTS 2/4) for 10 min (600 rpm/min) and then centrifuged at 5,594 g for 15 min (Thermo Multifuge×3R). Aliquots of the supernatant were taken, diluted 1:1 into distilled water, and analyzed by LC-MS/MS. The peak area response ratio to internal standard (PARR) of the compounds at 5, 15, 30, 45 minutes was compared to the PARR at time 0 to determine the percent of test compound remaining at each time point. Half-lives were calculated using Excel software, fitting to a single-phase exponential decay equation.

[3] = Assessment of In Vivo Pharmacokinetics in Beagle dog; details: for bioavailability in vivo / plasma clearance in vivo: dog, comparison in words; for Dog BAV: male Beagle dog, iv or po at 1 mg/kg or 3 mg/kg
Procedure: Assessment of In Vivo Pharmacokinetics
A total of 6 Male Non-naïve Beagle dog, weighing approximately 8.00-10.00 kg (Beijing Marshall Biotechnology Co. LTD), were dosed by intravenous injection (iv) or oral gavage (po) at 1 mg/kg or 3 mg/kg. The vehicles of IV and PO are 100% saline and 100% (0.5% MC in water), respectively. The IV dose was conducted via cephalic vein injection, PO via gavage administration. The animals were restrained manually, and approximately 0.5 mL blood/time point was collected from cephalic vein into pre-cooled K2EDTA tubes. Blood sample was put on wet ice and centrifuged at 4° C. (2000 g, 5 min) to obtain plasma within 15 minutes of sample collection. Plasma samples were analyzed by UPLC/MS-MS. PK parameters were estimated by non-compartmental model using WinNonlin6.4.

[4] = HCK inhibitory activity, 50 μM ATP, read-out: HCK Activity

Chain of N-terminally GST-tagged HCK (75-526) (P08631 75-526): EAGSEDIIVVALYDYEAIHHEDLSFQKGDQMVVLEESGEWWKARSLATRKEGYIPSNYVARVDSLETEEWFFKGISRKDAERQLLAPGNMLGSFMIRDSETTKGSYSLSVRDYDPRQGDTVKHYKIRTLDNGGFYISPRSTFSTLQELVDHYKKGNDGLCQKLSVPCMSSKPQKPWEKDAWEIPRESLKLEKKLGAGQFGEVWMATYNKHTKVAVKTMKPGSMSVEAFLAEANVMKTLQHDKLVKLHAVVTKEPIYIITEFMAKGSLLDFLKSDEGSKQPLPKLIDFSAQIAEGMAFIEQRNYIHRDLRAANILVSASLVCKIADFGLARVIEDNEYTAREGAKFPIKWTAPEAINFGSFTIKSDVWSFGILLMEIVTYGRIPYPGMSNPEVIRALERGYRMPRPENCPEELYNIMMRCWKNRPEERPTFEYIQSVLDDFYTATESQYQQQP

SMILES | IC50 ([1]; 50 μM ATP, read-out: HCK IC50) | IC50 [1, 4] | t1/2 in dog LM compared with the compound of example 1 [2] | half-life at 1 μM [2] | further results
C[C@H]1CN([C@H]2CC[C@H](n3nc(-c4ccc(Oc5ccccc5)cc4)c4c(N)ncnc43)CC2)CCN1 [Example 21, 1-((trans)-4-((S)-3-methylpiperazin-1-yl)cyclohexyl)-3-(4-phenoxyphenyl)-1H-pyrazolo[3,4-d] pyrimidin-4-amine] | 43 nM | < 50 nM | higher t1/2 | 128 min | –
C[C@H]1CN([C@H]2CC[C@H](n3cc(-c4ccc(Oc5ccccc5)cc4)c4c(N)ncnc43)CC2)CCN1 [Example 19, 7-((trans)-4-((S)-3-methylpiperazin-1-yl)cyclohexyl)-5-(4-phenoxyphenyl)-7H-pyrrolo[2,3-d]pyrimidin-4-amine] | 17 nM | < 50 nM | higher t1/2 | 84 min | –
CN1CCN([C@H]2CC[C@H](n3nc(-c4ccc(Oc5ccccc5)cc4F)c4c(N)ncnc43)CC2)CC1 [Example 103, 3-(2-Fluoro-4-phenoxyphenyl)-1-((trans)-4-(4-methylpiperazin-1-yl)cyclohexyl)-1H-pyrazolo [3,4-d] pyrimidin-4-amine] | 4.1 nM | < 50 nM | higher t1/2 | 58 min | bioavailability in vivo [3]: higher bioavailability; plasma clearance in vivo [3]: lower plasma clearance; Dog BAV [3]: 24 % F
CN1CCN([C@H]2CC[C@H](n3cc(-c4ccc(Oc5ccccc5)cc4)c4c(N)ncnc43)CC2)CC1 [Example 1, 7-((trans)-4-(4-methylpiperazin-1-yl)cyclohexyl)-5-(4-phenoxyphenyl)-7H-pyrrolo[2,3-d]pyrimidin-4-amine] | 3.3 nM | – | – | 11 min | IC50 [1]: < 50 nM; Dog BAV [3]: 0 % F
CN1CCN([C@H]2CC[C@H](c3nc(-c4ccc(Oc5ccccc5)cc4F)c4c(N)ncnn43)CC2)CC1 [Example 163, 5-(2-fluoro-4-phenoxyphenyl)-7-((trans)-4-(4-methylpiperazin-1-yl)cyclohexyl)imidazo[5,1-f][1,2,4]triazin-4-amine] | 1.1 nM | < 50 nM | higher t1/2 | 108 min | bioavailability in vivo [3]: higher bioavailability; plasma clearance in vivo [3]: lower plasma clearance; Dog BAV [3]: 51 % F
C[C@H]1CN([C@H]2CC[C@H](n3nc(-c4ccc(Oc5ccccc5)cc4F)c4c(N)ncnc43)CC2)CCN1 [Example 127, 3-(2-fluoro-4-phenoxyphenyl)-1-((trans)-4-((S)-3-methylpiperazin-1-yl)cyclohexyl)-1H-pyrazolo[3,4-d]pyrimidin-4-amine] | 5.1 nM | < 50 nM | higher t1/2 | 118 min | HCK potency relative to a comparator compound ([1]; example 127 versus example 21 and versus example 17): nearly an order of magnitude higher potency; also recorded: nearly three times greater potency; bioavailability in vivo [3]: higher bioavailability; plasma clearance in vivo [3]: lower plasma clearance; Dog BAV [3]: 57 % F
C[C@H]1CN([C@H]2CC[C@H](c3nc(-c4ccc(Oc5ccccc5)cc4F)c4c(N)ncnn43)CC2)CCN1 [Example 165, 5-(2-fluoro-4-phenoxyphenyl)-7-((trans)-4-((S)-3-methylpiperazin-1-yl)cyclohexyl)imidazo[5,1-f][1,2,4]triazin-4-amine] | 5 nM | < 50 nM | higher t1/2 | 167 min | –
C[C@@H]1CN([C@H]2CC[C@@H](n3cc(-c4ccc(Oc5ccccc5)cc4)c4c(N)ncnc43)CC2)CCN1C [Example 24, 7-((cis)-4-((R)-3,4-dimethylpiperazin-1-yl)cyclohexyl)-5-(4-phenoxyphenyl)-7H-pyrrolo[2,3-d]pyrimidin-4-amine] | – | < 50 nM | – | – | –
C[C@H]1CN([C@H]2CC[C@@H](c3cc(-c4ccc(Oc5ccccc5)cc4)c4c(N)ncnn43)CC2)CCN1 [Example 170, 7-((cis)-4-((S)-3-Methylpiperazin-1-yl)cyclohexyl)-5-(4-phenoxyphenyl)pyrrolo[2,1-f][1,2,4]triazin-4-amine] | – | 50 to 250 nM | – | – | –
CC(C)N1CCC(N2CCC(n3nc(-c4ccc(Oc5ccccc5)cc4F)c4c(N)ncnc43)CC2)CC1 [Example 153, 3-(2-fluoro-4-phenoxyphenyl)-1-(1′-isopropyl-[1,4′-bipiperidin]-4-yl)-1H-pyrazolo[3,4-d]pyrimidin-4-amine] | – | < 50 nM | – | – | –
C[C@H]1CN([C@H]2CC[C@H](n3cc(-c4ccc(Oc5ccccc5)cc4)c4c(N)ncnc43)CC2)CCN1C [Example 23, 7-((trans)-4-((S)-3,4-dimethylpiperazin-1-yl)cyclohexyl)-5-(4-phenoxyphenyl)-7H-pyrrolo[2,3-d]pyrimidin-4-amine] | – | < 50 nM | – | – | –
C[C@@H]1CN([C@H]2CC[C@@H](n3cc(-c4ccc(Oc5ccccc5)cc4)c4c(N)ncnc43)CC2)C[C@H](C)N1 [Example 26, 7-((cis)-4-((3S,5R)-3,5-dimethylpiperazin-1-yl)cyclohexyl)-5-(4-phenoxyphenyl)-7H-pyrrolo[2,3-d]pyrimidin-4-amine] | – | < 50 nM | – | – | –
CN1CCN([C@H]2CC[C@H](n3cc(-c4ccc(NC(=O)Nc5cc(C(C)(C)C)on5)cc4)c4c(N)ncnc43)CC2)CC1 [Example 120, 1-(4-(4-amino-7-((trans)-4-(4-methylpiperazin-1-yl)cyclohexyl)-7H-pyrrolo[2,3-d]pyrimidin-5-yl)phenyl)-3-(5-(tert-butyl)isoxazol-3-yl)urea] | – | < 50 nM | – | – | –
CN1CCN([C@H]2CC[C@H](n3cc(-c4ccc(Oc5cccnn5)cc4)c4c(N)ncnc43)CC2)CC1 [Example 116, 7-((trans)-4-(4-methylpiperazin-1-yl)cyclohexyl)-5-(4-(pyridazin-3-yloxy)phenyl)-7H-pyrrolo[2,3-d]pyrimidin-4-amine] | – | < 50 nM | – | – | –
C[C@H]1CC(N2CCC(n3nc(-c4ccc(Oc5ccccc5)cc4F)c4c(N)ncnc43)CC2)CCN1 (stereo partly drawn) [Example 155, 3-(2-fluoro-4-phenoxyphenyl)-1-((2′S)-2′-methyl-[1,4′-bipiperidin]-4-yl)-1H-pyrazolo[3,4-d]pyrimidin-4-amine] | – | < 50 nM | – | – | –
CC(=O)NN1CCN([C@H]2CC[C@H](n3cc(-c4ccc(Oc5ccccc5)cc4)c4c(N)ncnc43)CC2)CC1 [Example 40, N-(4-((trans)-4-(4-amino-5-(4-phenoxyphenyl)-7H-pyrrolo[2,3-d]pyrimidin-7-yl)cyclohexyl)piperazin-1-yl)acetamide] | – | < 50 nM | – | – | –
COc1cc(-c2cn([C@H]3CC[C@H](N4CCN[C@@H](C)C4)CC3)c3ncnc(N)c23)ccc1Oc1ccccc1 [Example 134, 5-(3-Methoxy-4-phenoxyphenyl)-7-((trans)-4-((S)-3-methylpiperazin-1-yl)cyclohexyl)-7H-pyrrolo[2,3-d]pyrimidin-4-amine] | – | < 50 nM | – | – | –
C[C@@H]1CN([C@H]2CC[C@@H](n3cc(-c4ccc(Oc5ccccc5)cc4)c4c(N)ncnc43)CC2)CCN1 [Example 13, 7-((cis)-4-((R)-3-methylpiperazin-1-yl)cyclohexyl)-5-(4-phenoxyphenyl)-7H-pyrrolo[2,3-d]pyrimidin-4-amine] | – | < 50 nM | – | – | –
